{
  "source": "paper PMC4667793",
  "about": "(Journal of medicinal chemistry, 2015)",
  "origin": "cited, not measured here",
  "biological_target": "MtBPL (Mycobacterium tuberculosis, UniProt I6YFP0)",
  "sequence (I6YFP0 whole entry, looked up)": "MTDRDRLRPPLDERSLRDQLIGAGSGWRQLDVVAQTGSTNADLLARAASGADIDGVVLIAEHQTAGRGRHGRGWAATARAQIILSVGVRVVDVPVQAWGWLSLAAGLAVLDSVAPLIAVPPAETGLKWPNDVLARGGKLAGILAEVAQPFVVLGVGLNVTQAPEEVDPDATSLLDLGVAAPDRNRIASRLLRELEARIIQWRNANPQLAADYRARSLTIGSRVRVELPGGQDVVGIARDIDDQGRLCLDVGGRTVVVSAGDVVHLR",
  "settings": "binding MtBPL; cited from earlier work",
  "note": "Where a name gives a salt, the structure may show the parent alone.",
  "data": [
    {"smiles": "Nc1ncnc2c1ncn2[C@@H]1O[C@H](CNS(=O)(=O)NC(=O)CCCC[C@@H]2SC[C@@H]3NC(=O)N[C@@H]32)[C@@H](O)[C@H]1O", "note": "[Compound 14, 5′-[N-(D-biotinoyl)sulfamoyl]amino-5′-deoxyadenosine triethylammonium salt]", "values": [
      {"measurement": "times more tightly bound than biotin", "result": "more than 1,700 times"}
    ]}
  ]
}
